In patent US12344597B2, “Alkoxy-substituted pyridinyl derivatives as LPA1 receptor antagonists and their use in the treatment of fibrosis” (IDORSIA PHARMACEUTICALS LTD, priority 2018, dated 2025):

Biological target: human LPA1 receptor (Homo sapiens (Human), UniProt Q92633)
Experiment: Beta-arrestin recruitment assay to determine IC50 values for human LPAR1
Assay type: cell-based
Details: antagonist mode, Tango EDG2-bla U2OS cells, LPA 18:1 500 nM final
Outline: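 Antagonist IC50 = concentration giving 50% inhibition of maximal LPA response. Read-out is beta-lactamase reporter activity after arrestin-protease recruitment in U2OS cells bearing LPA1-TEV-Gal4-VP16 construct; cells pre-incubated 20 h, 37 °C, 5% CO2.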

human LPA1 receptor, sequence (Q92633 whole entry): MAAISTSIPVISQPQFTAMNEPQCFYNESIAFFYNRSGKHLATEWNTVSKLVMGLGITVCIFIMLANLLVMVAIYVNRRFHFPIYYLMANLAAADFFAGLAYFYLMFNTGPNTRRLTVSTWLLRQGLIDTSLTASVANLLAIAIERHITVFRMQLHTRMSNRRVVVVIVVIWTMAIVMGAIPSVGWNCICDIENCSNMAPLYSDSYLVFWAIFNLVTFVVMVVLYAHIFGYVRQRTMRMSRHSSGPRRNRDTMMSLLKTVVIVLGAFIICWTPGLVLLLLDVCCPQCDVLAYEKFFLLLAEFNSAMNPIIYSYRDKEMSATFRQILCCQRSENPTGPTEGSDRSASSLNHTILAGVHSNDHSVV

IC50	Molecule
25 nM	Cc1ccc(NC(=O)C2(c3ccccc3C(C)C)CN(C(=O)NC(C)(C)C(=O)O)C2)c(OC(F)F)n1 [Ex 17-13, 2-(3-((2-(difluoromethoxy)-6-methylpyridin-3-yl)carbamoyl)-3-(2-isopropylphenyl)azetidine-1-carboxamido)-2-methylpropanoic acid]
7 nM	Cc1ccc(NC(=O)C2(c3ccccc3C(C)C)CCN(C(=O)Cn3nccn3)CC2)c(OC(F)F)n1 [Ex 12-22, 1-(2-(2H-1,2,3-triazol-2-yl)acetyl)-N-(2-(difluoromethoxy)-6-methylpyridin-3-yl)-4-(2-isopropylphenyl)piperidine-4-carboxamide]
13 nM	CCOC(=O)C1(NC(=O)N2CC(C(=O)Nc3ccc(C)nc3OC(F)F)(c3ccccc3C(C)C)C2)CC1 [Ex 17-10, ethyl 1-(3-((2-(difluoromethoxy)-6-methylpyridin-3-yl)carbamoyl)-3-(2-isopropylphenyl)azetidine-1-carboxamido)cyclopropane-1-carboxylate]
60 nM	Cc1ccc(NC(=O)C2(c3ccccc3C(C)C)CN(Cc3coc(C)n3)C2)c(OC(F)F)n1 [Ex 11-21, N-(2-(difluoromethoxy)-6-methylpyridin-3-yl)-3-(2-isopropylphenyl)-1-((2-methyloxazol-4-yl)methyl)azetidine-3-carboxamide]
11 nM	Cc1ccc(NC(=O)C2(c3ccccc3C(C)C)CN(c3cnc(C(=O)O)cn3)C2)c(OC(F)F)n1 [Ex 18-9, 5-(3-((2-(difluoromethoxy)-6-methylpyridin-3-yl)carbamoyl)-3-(2-isopropylphenyl)azetidin-1-yl)pyrazine-2-carboxylic acid]
65 nM	Cc1ccc(NC(=O)C2(c3ccccc3C(C)C)CN(CCC(C)(C)C(N)=O)C2)c(OC(F)F)n1 [Ex 11-93, 1-(4-amino-3,3-dimethyl-4-oxobutyl)-N-(2-(difluoromethoxy)-6-methylpyridin-3-yl)-3-(2-isopropylphenyl)azetidine-3-carboxamide]
16 nM	Cc1ccc(NC(=O)C2(c3ccccc3C(C)C)CN(c3ncc(C(=O)O)n3C)C2)c(OC(F)F)n1 [Ex 18-36, 2-(3-((2-(difluoromethoxy)-6-methylpyridin-3-yl)carbamoyl)-3-(2-isopropylphenyl)azetidin-1-yl)-1-methyl-1H-imidazole-5-carboxylic acid]
17 nM	Cc1ccc(NC(=O)C2(c3ccccc3C(C)C)CCN(S(=O)(=O)CCC(=O)OCc3ccccc3)CC2)c(OC(F)F)n1 [Ex 13-7, benzyl 3-((4-((2-(difluoromethoxy)-6-methylpyridin-3-yl)carbamoyl)-4-(2-isopropylphenyl)piperidin-1-yl)sulfonyl)propanoate]
11 nM	Cc1ccc(NC(=O)C2(c3ccccc3C(C)C)CN(c3ncc(C(=O)O)cn3)C2)c(OC(F)F)n1 [Ex 18-5, 2-(3-((2-(difluoromethoxy)-6-methylpyridin-3-yl)carbamoyl)-3-(2-isopropylphenyl)azetidin-1-yl)pyrimidine-5-carboxylic acid]
10 nM	COCCNCC(=O)N1CC(C(=O)Nc2ccc(C)nc2OC(F)F)(c2ccccc2C(C)C)C1 [Ex 12-54, N-(2-(difluoromethoxy)-6-methylpyridin-3-yl)-3-(2-isopropylphenyl)-1-((2-methoxyethyl)glycyl)azetidine-3-carboxamide]
11 nM	Methyl 4-(3-((5-bromo-3-(difluoromethoxy)pyridin-2-yl)carbamoyl)-3-(2-isopropylphenyl)azetidin-1-yl)-2,2-dimethyl-4-oxobutanoate [Ex 79-2]
11 nM	COC(=O)c1cc(N2CC(C(=O)Nc3ccc(C)nc3OC(F)F)(c3ccccc3C(C)C)C2)ncn1 [Ex 18-12, methyl 6-(3-((2-(difluoromethoxy)-6-methylpyridin-3-yl)carbamoyl)-3-(2-isopropylphenyl)azetidin-1-yl)pyrimidine-4-carboxylate]
270 nM	CCCOc1nc(C)ccc1NC(=O)C1(c2ccccc2C(C)C)CN(S(N)(=O)=O)C1 [Ex 59, 3-(2-isopropylphenyl)-N-(6-methyl-2-propoxypyridin-3-yl)-1-sulfamoylazetidine-3-carboxamide]
64 nM	COC(=O)c1cccc(CN2CC(C(=O)Nc3ccc(C)nc3OC(F)F)(c3ccccc3C(C)C)C2)n1 [Ex 11-45, methyl 6-((3-((2-(difluoromethoxy)-6-methylpyridin-3-yl)carbamoyl)-3-(2-isopropylphenyl)azetidin-1-yl)methyl)picolinate]
200 nM	Cc1cnc(NC(=O)C2(c3ccccc3C(C)C)CN(C(=O)CC(C)(C)C(=O)O)C2)c(OC(F)F)c1 [Ex 79-6, 4-(3-((3-(difluoromethoxy)-5-methylpyridin-2-yl)carbamoyl)-3-(2-isopropylphenyl)azetidin-1-yl)-2,2-dimethyl-4-oxobutanoic acid]
270 nM	Cc1ccc(NC(=O)C2(c3ccccc3C(C)C)CN(C(=O)N3CCNCC3)C2)c(OC(F)F)n1 [Ex 17-25, N-(2-(difluoromethoxy)-6-methylpyridin-3-yl)-3-(2-isopropylphenyl)-1-(piperazine-1-carbonyl)azetidine-3-carboxamide]
230 nM	COC(=O)CCC(=O)N1CC(C(=O)Nc2ccc(Cl)nc2OC)(c2ccccc2C(C)C)C1 [Ex 12-69, methyl 4-(3-((6-chloro-2-methoxypyridin-3-yl)carbamoyl)-3-(2-isopropylphenyl)azetidin-1-yl)-4-oxobutanoate]
63 nM	CNC(C)(C)CN1CC(C(=O)Nc2ccc(C)nc2OC(F)F)(c2ccccc2C(C)C)C1 [Ex 11-64, N-(2-(difluoromethoxy)-6-methylpyridin-3-yl)-3-(2-isopropylphenyl)-1-(2-methyl-2-(methylamino)propyl)azetidine-3-carboxamide]
17 nM	CC(C)c1ccccc1C1(C(=O)Nc2ncc(Cl)cc2OC(F)F)CN(C(=O)CC(C)(C)C(=O)O)C1 [Ex 79-3, 4-(3-((5-chloro-3-(difluoromethoxy)pyridin-2-yl)carbamoyl)-3-(2-isopropylphenyl)azetidin-1-yl)-2,2-dimethyl-4-oxobutanoic acid]
27 nM	Cc1ccc(NC(=O)C2(c3ccccc3C(C)C)CN(C(=O)CC(C)C(=O)O)C2)c(OC(F)F)n1 (stereo not shown) [Ex 12-78, 4-(3-((2-(difluoromethoxy)-6-methylpyridin-3-yl)carbamoyl)-3-(2-isopropylphenyl)azetidin-1-yl)-2-methyl-4-oxobutanoic acid]
31 nM	Cc1ccc(NC(=O)C2(c3ccccc3C(C)C)CN(C(=O)/C=C\C(=O)O)C2)c(OC(F)F)n1 [Ex 12-77, (Z)-4-(3-((2-(difluoromethoxy)-6-methylpyridin-3-yl)carbamoyl)-3-(2-isopropylphenyl)azetidin-1-yl)-4-oxobut-2-enoic acid]
11 nM	Cc1ccc(NC(=O)C2(c3ccccc3C(C)C)CN(S(=O)(=O)NC3CC3)C2)c(OC(F)F)n1 [Ex 15-13, 1-(N-cyclopropylsulfamoyl)-N-(2-(difluoromethoxy)-6-methylpyridin-3-yl)-3-(2-isopropylphenyl)azetidine-3-carboxamide]
45 nM	COC(=O)C1(CN2CC(C(=O)Nc3ccc(C)nc3OC(F)F)(c3ccccc3C(C)C)C2)COC1 [Ex 11-90, methyl 3-((3-((2-(difluoromethoxy)-6-methylpyridin-3-yl)carbamoyl)-3-(2-isopropylphenyl)azetidin-1-yl)methyl)oxetane-3-carboxylate]
4 nM	COC(=O)[C@H](C)NC(=O)N1CC(C(=O)Nc2ccc(C)nc2OC(F)F)(c2ccccc2C(C)C)C1 [Ex 17-8, methyl (3-((2-(difluoromethoxy)-6-methylpyridin-3-yl)carbamoyl)-3-(2-isopropylphenyl)azetidine-1-carbonyl)-L-alaninate]
9 nM	Cc1ccc(NC(=O)C2(c3ccccc3C(C)C)CN(C(=O)c3cc(O)no3)C2)c(OC(F)F)n1 [Ex 12-16, N-(2-(difluoromethoxy)-6-methylpyridin-3-yl)-1-(3-hydroxyisoxazole-5-carbonyl)-3-(2-isopropylphenyl)azetidine-3-carboxamide]
17 nM	Cc1ccc(NC(=O)C2(c3ccccc3C(C)C)CN(c3cc(C(=O)O)ncn3)C2)c(OC(F)F)n1 [Ex 18-13, 6-(3-((2-(difluoromethoxy)-6-methylpyridin-3-yl)carbamoyl)-3-(2-isopropylphenyl)azetidin-1-yl)pyrimidine-4-carboxylic acid]
106 nM	Cc1ccc(NC(=O)C2(c3ccccc3C(C)C)CN(C(=O)C3COCCN3)C2)c(OC(F)F)n1 (stereo not shown) [Ex 12-43, N-(2-(difluoromethoxy)-6-methylpyridin-3-yl)-3-(2-isopropylphenyl)-1-(morpholine-3-carbonyl)azetidine-3-carboxamide]
1760 nM	CCOC(=O)CC1(S(=O)(=O)N2CC(C(=O)Nc3ccc(C)nc3OC(F)F)(c3ccccc3C(C)C)C2)CC1 [Ex 13-13, ethyl 2-(1-((3-((2-(difluoromethoxy)-6-methylpyridin-3-yl)carbamoyl)-3-(2-isopropylphenyl)azetidin-1-yl)sulfonyl)cyclopropyl)acetate]
46 nM	Cc1ccc(NC(=O)C2(c3ccccc3C(C)C)CN(C(=O)CN3CC(=O)NC3=O)C2)c(OC(F)F)n1 [Ex 12-126, N-(2-(difluoromethoxy)-6-methylpyridin-3-yl)-1-(2-(2,4-dioxoimidazolidin-1-yl)acetyl)-3-(2-isopropylphenyl)azetidine-3-carboxamide]
68 nM	Cc1ccc(NC(=O)C2(c3ccccc3C(C)C)CN(C(=O)[C@H]3CC[C@@H](C(=O)O)CC3)C2)c(OC(F)F)n1 [Ex 50, (1s,4s)-4-(3-((2-(difluoromethoxy)-6-methylpyridin-3-yl)carbamoyl)-3-(2-isopropylphenyl)azetidine-1-carbonyl)cyclohexane-1-carboxylic acid]

Molecule	IC50
CCOC(=O)C[C@@H](CC(=O)N1CC(C(=O)Nc2ccc(C)nc2OC(F)F)(c2ccccc2C(C)C)C1)OC(C)=O [Ex 12-104, ethyl (R)-3-acetoxy-5-(3-((2-(difluoromethoxy)-6-methylpyridin-3-yl)carbamoyl)-3-(2-isopropylphenyl)azetidin-1-yl)-5-oxopentanoate]	41 nM
